The target in one experiment is human orexin-2 receptor (Homo sapiens (Human), UniProt O43614). The experiment can be described thus: Intracellular calcium measurement (FLIPR), CHO cells expressing human orexin-2 receptor, 3 nM orexin-A. It counts as cell-based. Conditions: read-out: IC50 OX2. The method in brief:
(§1)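 CHO transfectants were dye-loaded (fluo-4 AM, probenecid) and exposed to antagonist for 120 min ahead of agonist.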
A general note: Calcium assays in cells follow changes in intracellular calcium, usually with a dye or a luminescent sensor.

A further experiment concerns the target orexin-1 (Homo sapiens (Human), UniProt O43613). The experiment can be described thus: Intracellular calcium measurement (FLIPR), CHO cells expressing human orexin-1 receptor, 3 nM orexin-A. The following applies: read-out: IC50 OX1. It counts as cell-based. The method, boiled down: as §1
Setting [1] is: CHO cells expressing human orexin-2 receptor, FLIPR, 3 nM orexin-A, geometric mean if determined several times.
Setting [2] is: CHO cells expressing human orexin-1 receptor, FLIPR, 3 nM orexin-A, geometric mean if determined several times.

Results on 31 compounds are retold here after patent US9493446B2, “Orexin receptor antagonists which are [ortho bi-(hetero-)aryl]-[2-(meta bi-(hetero-)aryl)-pyrrolidin-1-yl]-methanone derivatives” (Actelion Pharmaceuticals Ltd, priority 2012, dated 2016).

The structures appear in SMILES notation. Where two headings read alike, the source gives them in different places.

Chain of human orexin-2 receptor (O43614 whole entry): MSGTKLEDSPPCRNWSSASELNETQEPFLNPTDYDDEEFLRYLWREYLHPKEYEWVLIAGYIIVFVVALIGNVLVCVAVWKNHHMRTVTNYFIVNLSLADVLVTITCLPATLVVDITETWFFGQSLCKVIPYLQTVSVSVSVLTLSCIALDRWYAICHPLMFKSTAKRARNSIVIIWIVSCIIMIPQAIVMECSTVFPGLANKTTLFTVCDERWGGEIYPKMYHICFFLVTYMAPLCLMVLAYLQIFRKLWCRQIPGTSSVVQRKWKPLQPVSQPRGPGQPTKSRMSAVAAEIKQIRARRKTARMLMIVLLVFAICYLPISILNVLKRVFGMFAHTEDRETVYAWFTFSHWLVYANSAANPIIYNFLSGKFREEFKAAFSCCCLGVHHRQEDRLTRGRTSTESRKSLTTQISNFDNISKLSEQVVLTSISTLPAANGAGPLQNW
Chain of orexin-1 (O43613 whole entry): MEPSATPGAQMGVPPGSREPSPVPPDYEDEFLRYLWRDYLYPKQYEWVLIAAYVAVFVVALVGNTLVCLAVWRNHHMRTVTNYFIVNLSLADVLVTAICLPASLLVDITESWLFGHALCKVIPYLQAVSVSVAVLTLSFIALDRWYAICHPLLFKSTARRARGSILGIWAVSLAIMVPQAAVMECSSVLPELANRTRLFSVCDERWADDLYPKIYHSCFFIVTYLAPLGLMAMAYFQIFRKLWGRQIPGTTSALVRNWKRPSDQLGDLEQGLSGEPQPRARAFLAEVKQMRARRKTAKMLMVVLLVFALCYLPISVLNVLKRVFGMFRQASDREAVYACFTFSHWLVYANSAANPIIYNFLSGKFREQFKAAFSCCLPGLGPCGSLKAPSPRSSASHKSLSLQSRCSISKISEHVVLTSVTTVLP

A word on the IC50: it is the concentration that inhibits the measured activity by half. Turning to `Cc1c(F)cccc1-c1noc([C@@H]2CCCN2C(=O)c2ccccc2-n2nccn2)n1` [compound 244, {(S)-2-[3-(3-Fluoro-2-methyl-phenyl)-[1,2,4]oxadiazol-5-yl]-pyrrolidin-1-yl}-(2-[1,2,3]triazol-2-yl-phenyl)-methanone], the IC50 at human orexin-2 receptor (setting [1]) stood at 18 nM; at orexin-1 (setting [2]) it was 306 nM.
`Cc1c(F)cccc1-c1noc([C@@H]2CCCN2C(=O)c2cc(Cl)ccc2-n2nccn2)n1` [compound 245]: the values for the IC50 on human orexin-2 receptor (setting [1]) and at orexin-1 were 21 nM and 262 nM, respectively.
Take `Cc1ccc(C(=O)N2CCC[C@H]2c2nc(-c3cccc(F)c3C)no2)c(-n2nccn2)c1` [compound 246, {(S)-2-[3-(3-Fluoro-2-methyl-phenyl)-[1,2,4]oxadiazol-5-yl]-pyrrolidin-1-yl}-(4-methyl-2-[1,2,3]triazol-2-yl-phenyl)-methanone]: the IC50 at human orexin-2 receptor (setting [1]) came to 14 nM; on orexin-1 (setting [2]) it was 135 nM.
As for `Cc1cc(C(=O)N2CCC[C@H]2c2nc(-c3cccc(F)c3C)no2)c(-n2nccn2)cc1C` [compound 247, (4,5-Dimethyl-2-[1,2,3]triazol-2-yl-phenyl)-{(S)-2-[3-(3-fluoro-2-methyl-phenyl)-[1,2,4]oxadiazol-5-yl]-pyrrolidin-1-yl}-methanone], the results for the IC50 on human orexin-2 receptor (setting [1]) and on orexin-1 (setting [2]) were 3 nM and 17 nM, respectively.
The like results for `COc1ccc(-n2nccn2)c(C(=O)N2CCC[C@H]2c2nc(-c3cccc(F)c3C)no2)c1` [compound 249, {(S)-2-[3-(3-Fluoro-2-methyl-phenyl)-[1,2,4]oxadiazol-5-yl]-pyrrolidin-1-yl}-(5-methoxy-2-[1,2,3]triazol-2-yl-phenyl)-methanone] were, in that order, 8 nM and 151 nM.
Take `Cc1c(F)cccc1-c1noc([C@@H]2CCCN2C(=O)c2cc(F)ccc2-n2nccn2)n1` [compound 250, {(S)-2-[3-(3-Fluoro-2-methyl-phenyl)-[1,2,4]oxadiazol-5-yl]-pyrrolidin-1-yl}-(5-fluoro-2-[1,2,3]triazol-2-yl-phenyl)-methanone]: the IC50 at human orexin-2 receptor (setting [1]) was 38 nM; on orexin-1 (setting [2]), 489 nM.
Regarding `Cc1cccc(C(=O)N2CCC[C@H]2c2nc(-c3cccc(F)c3C)no2)c1-n1nccn1` [compound 251, {(S)-2-[3-(3-Fluoro-2-methyl-phenyl)-[1,2,4]oxadiazol-5-yl]-pyrrolidin-1-yl}-(3-methyl-2-[1,2,3]triazol-2-yl-phenyl)-methanone], the IC50 at human orexin-2 receptor (setting [1]) is 90 nM; on orexin-1 (setting [2]), 626 nM.
For `Cc1c(F)cccc1-c1noc([C@@H]2CCCN2C(=O)c2cccc(F)c2-c2ccn[nH]2)n1` [compound 253, {(S)-2-[3-(3-Fluoro-2-methyl-phenyl)-[1,2,4]oxadiazol-5-yl]-pyrrolidin-1-yl}-[3-fluoro-2-(2H-pyrazol-3-yl)-phenyl]-methanone], in that order: 5 nM and 174 nM.
The like results for `CCOc1ccccc1-c1noc([C@@H]2CCCN2C(=O)c2cccc(F)c2-c2ccn[nH]2)n1` [compound 254, {(S)-2-[3-(2-Ethoxy-phenyl)-[1,2,4]oxadiazol-5-yl]-pyrrolidin-1-yl}-[3-fluoro-2-(2H-pyrazol-3-yl)-phenyl]-methanone] were, in that order, 20 nM and 69 nM.
For the compound `CCOc1ccccc1-c1noc([C@@H]2CCCN2C(=O)c2cc(Cl)ccc2-n2nccn2)n1` [compound 255], the figures for the IC50 on human orexin-2 receptor (setting [1]) and on orexin-1 (setting [2]) were 8 nM and 36 nM, respectively.
The like results for `CCOc1ccccc1-c1noc([C@@H]2CCCN2C(=O)c2ccc(C)cc2-n2nccn2)n1` [compound 256, {(S)-2-[3-(2-Ethoxy-phenyl)-[1,2,4]oxadiazol-5-yl]-pyrrolidin-1-yl}-(4-methyl-2-[1,2,3]triazol-2-yl-phenyl)-methanone] were, in that order, 20 nM and 43 nM.
Turning to `CCOc1ccccc1-c1noc([C@@H]2CCCN2C(=O)c2cc(C)c(C)cc2-n2nccn2)n1` [compound 257, (4,5-Dimethyl-2-[1,2,3]triazol-2-yl-phenyl)-{(S)-2-[3-(2-ethoxy-phenyl)-[1,2,4]oxadiazol-5-yl]-pyrrolidin-1-yl}-methanone], the IC50 worked out at 1 nM at human orexin-2 receptor (setting [1]) and 4 nM on orexin-1 (setting [2]).
With `CCOc1ccccc1-c1noc([C@@H]2CCCN2C(=O)c2cc(OC)c(C)cc2-n2nccn2)n1` [compound 258, {(S)-2-[3-(2-Ethoxy-phenyl)-[1,2,4]oxadiazol-5-yl]-pyrrolidin-1-yl}-(5-methoxy-4-methyl-2-[1,2,3]triazol-2-yl-phenyl)-methanone], the results for the IC50 on human orexin-2 receptor (setting [1]) and at orexin-1 (setting [2]) were 4 nM and 27 nM, respectively.
For `CCOc1ccccc1-c1noc([C@@H]2CCCN2C(=O)c2nc(C)ccc2-n2nccn2)n1` [compound 259, {(S)-2-[3-(2-Ethoxy-phenyl)-[1,2,4]oxadiazol-5-yl]-pyrrolidin-1-yl}-(6-methyl-3-[1,2,3]triazol-2-yl-pyridin-2-yl)-methanone], the figures for the IC50 at human orexin-2 receptor (setting [1]) and on orexin-1 (setting [2]) were 99 nM and 352 nM, respectively.
For `CCOc1ccccc1-c1noc([C@@H]2CCCN2C(=O)c2ccccc2-n2nccn2)n1` [compound 260, {(S)-2-[3-(2-Ethoxy-phenyl)-[1,2,4]oxadiazol-5-yl]-pyrrolidin-1-yl}-(2-[1,2,3]triazol-2-yl-phenyl)-methanone], in that order: 63 nM and 392 nM.
For `CCOc1ccccc1-c1noc([C@@H]2CCCN2C(=O)c2cc(OC)ccc2-n2nccn2)n1` [compound 261, {(S)-2-[3-(2-Ethoxy-phenyl)-[1,2,4]oxadiazol-5-yl]-pyrrolidin-1-yl}-(5-methoxy-2-[1,2,3]triazol-2-yl-phenyl)-methanone], in that order: 9 nM and 26 nM.
For `CCOc1ccccc1-c1noc([C@@H]2CCCN2C(=O)c2cccc(C)c2-n2nccn2)n1` [compound 262, {(S)-2-[3-(2-Ethoxy-phenyl)-[1,2,4]oxadiazol-5-yl]-pyrrolidin-1-yl}-(3-methyl-2-[1,2,3]triazol-2-yl-phenyl)-methanone], the results for the IC50 at human orexin-2 receptor (setting [1]) and at orexin-1 (setting [2]) were 145 nM and 1110 nM, respectively.
As to `CCOc1ccccc1-c1noc([C@@H]2CCCN2C(=O)c2cc(F)ccc2-n2nccn2)n1` [compound 263, {(S)-2-[3-(2-Ethoxy-phenyl)-[1,2,4]oxadiazol-5-yl]-pyrrolidin-1-yl}-(5-fluoro-2-[1,2,3]triazol-2-yl-phenyl)-methanone], the IC50 at human orexin-2 receptor (setting [1]) was found to be 105 nM; at orexin-1 (setting [2]), 505 nM.
For `Cc1c(Cl)cccc1-c1noc([C@@H]2CCCN2C(=O)c2cc(Cl)ccc2-n2nccn2)n1` [compound 264], the IC50 on human orexin-2 receptor was 14 nM; at orexin-1 (setting [2]), 165 nM.
With `COc1ccc(-n2nccn2)c(C(=O)N2CCC[C@H]2c2nc(-c3cccc(Cl)c3C)no2)c1F` [compound 265], the IC50 is 76 nM at human orexin-2 receptor (setting [1]) and 112 nM at orexin-1 (setting [2]).
As for `Cc1ccc(-n2nccn2)c(C(=O)N2CCC[C@H]2c2nc(-c3cccc(Cl)c3C)no2)c1F` [compound 266], the IC50 on human orexin-2 receptor amounted to 14 nM; at orexin-1 it was 115 nM.
For `Cc1noc(-c2ccccc2C(=O)N2CCC[C@H]2c2nc(-c3cccc(Cl)c3C)no2)n1` [compound 267], the IC50 on human orexin-2 receptor (setting [1]) is 177 nM; at orexin-1 (setting [2]), 501 nM.
Turning to `Cc1c(Cl)cccc1-c1noc([C@@H]2CCCN2C(=O)c2ccccc2-c2ccccc2)n1` [compound 268], the IC50 at human orexin-2 receptor (setting [1]) was 31 nM; at orexin-1 (setting [2]) it was 233 nM.
For `COc1cc(C(=O)N2CCC[C@H]2c2nc(-c3cccc(Cl)c3C)no2)c(-c2ncccn2)cc1C` [compound 269], in that order: 12 nM and 177 nM.
The like results for `Cc1ccc(-n2nccn2)c(C(=O)N2CCC[C@H]2c2nc(-c3cccc(OC(F)(F)F)c3)no2)c1` [compound 270, (5-Methyl-2-[1,2,3]triazol-2-yl-phenyl)-{(S)-2-[3-(3-trifluoromethoxy-phenyl)-[1,2,4]oxadiazol-5-yl]-pyrrolidin-1-yl}-methanone] were, in that order, 32 nM and 282 nM.
The like results for `Cc1ccc(C(=O)N2CCC[C@H]2c2nc(-c3ccccc3OC(F)(F)F)no2)c(-n2nccn2)c1C` [compound 271, (3,4-Dimethyl-2-[1,2,3]triazol-2-yl-phenyl)-{(S)-2-[3-(2-trifluoromethoxy-phenyl)-[1,2,4]oxadiazol-5-yl]-pyrrolidin-1-yl}-methanone] were, in that order, 189 nM and 69 nM.
Take `COc1c(F)cccc1-c1noc([C@@H]2CCCN2C(=O)c2ccc(C)c(C)c2-n2nccn2)n1` [compound 272, (3,4-Dimethyl-2-[1,2,3]triazol-2-yl-phenyl)-{(S)-2-[3-(3-fluoro-2-methoxy-phenyl)-[1,2,4]oxadiazol-5-yl]-pyrrolidin-1-yl}-methanone]: the IC50 at human orexin-2 receptor (setting [1]) came out at 252 nM; at orexin-1 (setting [2]), 149 nM.
For the compound `CCOc1ncccc1-c1noc([C@@H]2CCCN2C(=O)c2ccc(C)c(C)c2-n2nccn2)n1` [compound 273, (3,4-Dimethyl-2-[1,2,3]triazol-2-yl-phenyl)-{(S)-2-[3-(2-ethoxy-pyridin-3-yl)-[1,2,4]oxadiazol-5-yl]-pyrrolidin-1-yl}-methanone], the IC50 on human orexin-2 receptor (setting [1]) worked out at 134 nM; on orexin-1 (setting [2]) it was 148 nM.
The like results for `Cc1ccc(-c2ncccn2)c(C(=O)N2CCC[C@H]2c2nc(-c3cccc(Cl)c3C)no2)c1` [compound 274] were, in that order, 29 nM and 171 nM.
As for `N#Cc1ccc(-n2nccn2)c(C(=O)N2CCC[C@H]2c2nc(-c3ccccc3OC(F)(F)F)no2)c1` [compound 275, 4-[1,2,3]Triazol-2-yl-3-{(S)-2-[3-(2-trifluoromethoxy-phenyl)-[1,2,4]oxadiazol-5-yl]-pyrrolidine-1-carbonyl}-benzonitrile], the figures for the IC50 on human orexin-2 receptor (setting [1]) and at orexin-1 (setting [2]) were 161 nM and 210 nM, respectively.
`Cc1c(Cl)cccc1-c1noc([C@@H]2CCCN2C(=O)c2cc(C#N)ccc2-n2nccn2)n1` [compound 276]: the figures for the IC50 at human orexin-2 receptor (setting [1]) and on orexin-1 (setting [2]) were 243 nM and 762 nM, respectively.
